Measurements reported in patent US4443436A, “C-20-Modified macrolide derivatives of the macrolide antibiotics tylosin, desmycosin, macrocin, and lactenocin” (Eli Lilly and Company, priority 1982, dated 1984).
In brackets after ≈: the same amount, converted by molar mass. Like-named read-outs stand apart in the source and are kept apart here.

Experiments:
Format in all cases: cell-based
[1] = system: Streptococcus pyogenes C203; assay: MIC, standard agar-dilution assay, Streptococcus pyogenes C203
[2] = system: Streptococcus Group D X66; assay: MIC, standard agar-dilution assay, Streptococcus Group D X66
[3] = system: Streptococcus pneumoniae Park I; assay: microbe, parasite or virus in culture
Mycoplasma hyopneumoniae = assay: MIC, broth-dilution microtiter test, Mycoplasma hyopneumoniae; conditions: Mesomycoplasma hyopneumoniae
Excerpt: (§1) The MIC's in Table X were obtained using conventional broth-dilution microtiter tests.

Streptococcus Group 9960 = assay: MIC, standard agar-dilution assay, Streptococcus Group 9960; conditions: GROUP9960
Mycoplasma gallisepticum = assay: MIC, broth-dilution microtiter test, Mycoplasma gallisepticum; conditions: Mycoplasmoides gallisepticum
Excerpt: as §1

[4] = system: Pasteurella multocida 60A; assay: MIC, broth-dilution microtiter test, Pasteurella multocida 60A; conditions: Pasteurella multocida 60A; avian isolate; broth-dilution microtiter; read-out: MIC
Excerpt: as §1

[5] = system: Pasteurella hemolytica 22C; assay: MIC, broth-dilution microtiter test, Pasteurella hemolytica 22C; conditions: Pasteurella hemolytica 22C; broth-dilution microtiter; read-out: MIC
Excerpt: as §1

[6] = system: Haemophilus influenzae R252; assay: MIC, standard agar-dilution assay, Haemophilus influenzae R252
Staphylococcus aureus = assay: MIC, broth-dilution microtiter test, Staphylococcus aureus
Excerpt: as §1

[7] = system: Pasteurella multocida 17E; assay: MIC, broth-dilution microtiter test, Pasteurella multocida 17E; conditions: Pasteurella multocida 17E; bovine isolate; broth-dilution microtiter; read-out: MIC
Excerpt: as §1

Mycoplasma synoviae = assay: MIC, broth-dilution microtiter test, Mycoplasma synoviae; conditions: Mycoplasmopsis synoviae
Excerpt: as §1

[8] = system: Staphylococcus aureus X400; assay: MIC, standard agar-dilution assay, Staphylococcus aureus X400
[9] = system: Staphylococcus epidermidis EPI2; assay: MIC, standard agar-dilution assay, Staphylococcus epidermidis EPI2
[10] = system: Staphylococcus aureus X1.1; assay: MIC, standard agar-dilution assay, Staphylococcus aureus X1.1
[11] = system: Staphylococcus aureus S13E; assay: MIC, standard agar-dilution assay, Staphylococcus aureus S13E; conditions: Staphylococcus aureus, S13E
[12] = system: Staphylococcus aureus V41; assay: MIC, standard agar-dilution assay, Staphylococcus aureus V41
[13] = system: Staphylococcus epidermidis EPI1; assay: MIC, standard agar-dilution assay, Staphylococcus epidermidis EPI1
Streptococcus bovis 80 = assay: MIC, broth-dilution microtiter test, Streptococcus bovis 80; conditions: Streptococcus equinus; Streptococcus bovis 80; broth-dilution microtiter; read-out: MIC
Excerpt: as §1

Mycoplasma hyorhinis = assay: MIC, broth-dilution microtiter test, Mycoplasma hyorhinis
Excerpt: as §1

[14] = system: Haemophilus influenzae Holt; assay: MIC, standard agar-dilution assay, Haemophilus influenzae Holt
[15] = Streptococcus pyogenes C203, agar dilution, read-out: MIC
[16] = Mycoplasma hyopneumoniae, broth-dilution microtiter, read-out: MIC
[17] = Mycoplasma gallisepticum, broth-dilution microtiter, read-out: MIC
[18] = Haemophilus influenzae R252, ampicillin-resistant strain, read-out: MIC
[19] = Staphylococcus epidermidis, EPI2
[20] = Staphylococcus epidermidis EPI1, agar dilution, read-out: MIC
[21] = Streptococcus Group D X66, agar dilution, read-out: MIC
[22] = Streptococcus pneumoniae Park I, agar dilution, read-out: MIC
[23] = Staphylococcus epidermidis, EPI1
[24] = Haemophilus influenzae Holt, ampicillin-sensitive strain, read-out: MIC
[25] = Streptococcus Group 9960, agar dilution, read-out: MIC
[26] = Mycoplasma hyorhinis, broth-dilution microtiter, read-out: MIC

Molecule `CCC1OC(=O)CC(O)C(C)C(OC2OC(C)C(OC3CC(C)(O)C(O)C(C)O3)C(N(C)C)C2O)C(CCOc2ccc(C(=O)c3ccccc3)cc2)CC(C)C(=O)C=CC(C)=CC1COC1OC(C)C(O)C(OC)C1OC` (stereo not drawn) [Compound 13, 20-DH-20-O-(p-Benzoylphenyl)tylosin] has an MIC [1, 15] of 2 µg/mL (≈ 1.82 µM), an MIC [2] of 4 µg/mL (≈ 3.64 µM) and an MIC ([3]; Streptococcus pneumoniae) of 1 µg/mL (≈ 0.91 µM). For the same molecule, the MIC (Mycoplasma hyopneumoniae; [16]) was 3.12 µg/mL (≈ 2.84 µM), the MIC (Streptococcus Group 9960) was 4 µg/mL (≈ 3.64 µM) and the MIC (Mycoplasma gallisepticum; [17]) was 0.78 µg/mL (≈ 0.71 µM). The MIC [4] was > 50 µg/mL, the MIC [5] was > 50 µg/mL and the MIC [6, 18] was > 128 µg/mL. The MIC (Staphylococcus aureus; broth-dilution microtiter, read-out: MIC) was 1.56 µg/mL (≈ 1.42 µM), the MIC [7] was > 50 µg/mL and the MIC (Mycoplasma synoviae) was 6.25 µg/mL (≈ 5.69 µM). It also gave an MIC ([8]; Staphylococcus aureus, X400) of 4 µg/mL (≈ 3.64 µM), an MIC [9, 19] of 1 µg/mL (≈ 0.91 µM) and an MIC ([10]; Staphylococcus aureus, X1.1) of 1 µg/mL (≈ 0.91 µM). The MIC [11] was 1 µg/mL (≈ 0.91 µM), the MIC ([12]; Staphylococcus aureus, V41) was 1 µg/mL (≈ 0.91 µM) and the MIC [13, 20] was 2 µg/mL (≈ 1.82 µM). For the same molecule, the MIC (Streptococcus bovis 80) was 1.56 µg/mL (≈ 1.42 µM), the MIC (Mycoplasma hyorhinis; Mycoplasma) was 6.25 µg/mL (≈ 5.69 µM) and the MIC ([14]; Haemophilus influenzae) was > 128 µg/mL.

Work on `CCC1OC(=O)CC(O)C(C)C(OC2OC(C)C(OC3CC(C)(O)C(O)C(C)O3)C(N(C)C)C2O)C(CCOc2ccc([N+](=O)[O-])cc2)CC(C)C(=O)C=CC(C)=CC1COC1OC(C)C(O)C(OC)C1OC` (stereo not drawn) [Compound 12, 20-DH-20-O-(p-Nitrophenyl)tylosin] yielded an MIC ([1]; Streptococcus pyogenes, C203) of 2 µg/mL (≈ 1.92 µM), an MIC [2, 21] of 128 µg/mL (≈ 123 µM) and an MIC [3, 22] of 16 µg/mL (≈ 15.4 µM). For the same molecule, the MIC (Mycoplasma hyopneumoniae; [16]) was > 25 µg/mL, the MIC (Streptococcus Group 9960) was > 128 µg/mL and the MIC (Mycoplasma gallisepticum; [17]) was 0.39 µg/mL (≈ 0.375 µM). The MIC [4] was > 50 µg/mL, the MIC [5] was > 50 µg/mL and the MIC ([6]; Haemophilus influenzae, R252) was 128 µg/mL (≈ 123 µM). For the same molecule, the MIC (Staphylococcus aureus) was 1.56 µg/mL (≈ 1.5 µM), the MIC [7] was > 50 µg/mL and the MIC (Mycoplasma synoviae) was 1.56 µg/mL (≈ 1.5 µM). It also gave an MIC ([8]; Staphylococcus aureus, X400) of 2 µg/mL (≈ 1.92 µM), an MIC ([9]; Staphylococcus epidermidis EPI2, agar dilution, read-out: MIC) of 0.5 µg/mL (≈ 0.481 µM) and an MIC ([10]; Staphylococcus aureus, X1.1) of 1 µg/mL (≈ 0.962 µM). The MIC [11] was 1 µg/mL (≈ 0.962 µM), the MIC ([12]; Staphylococcus aureus, V41) was 1 µg/mL (≈ 0.962 µM) and the MIC [13, 23] was 1 µg/mL (≈ 0.962 µM). For the same molecule, the MIC (Streptococcus bovis 80) was 25 µg/mL (≈ 24.1 µM), the MIC (Mycoplasma hyorhinis; Mycoplasma) was 50 µg/mL (≈ 48.1 µM) and the MIC [14, 24] was > 128 µg/mL.

`CCC1OC(=O)CC(O)C(C)C(OC2OC(C)C(OC3CC(C)(O)C(O)C(C)O3)C(N(C)C)C2O)C(CCOc2ccc(C=O)cc2)CC(C)C(=O)C=CC(C)=CC1COC1OC(C)C(O)C(OC)C1OC` (stereo not drawn) [Compound 17, 20-DH-20-O-(p-Formylphenyl)tylosin] gave an MIC ([1]; Streptococcus pyogenes, C203) of 1 µg/mL (≈ 0.978 µM), an MIC [2] of 128 µg/mL (≈ 125 µM) and an MIC [3, 22] of 16 µg/mL (≈ 15.7 µM). The MIC (Mycoplasma hyopneumoniae) was > 25 µg/mL, the MIC (Streptococcus Group 9960; [25]) was > 128 µg/mL and the MIC (Mycoplasma gallisepticum) was 0.78 µg/mL (≈ 0.763 µM). For the same molecule, the MIC [4] was > 50 µg/mL, the MIC [5] was > 50 µg/mL and the MIC [6, 18] was > 128 µg/mL. The MIC (Staphylococcus aureus) was 1.56 µg/mL (≈ 1.53 µM), the MIC [7] was > 50 µg/mL and the MIC (Mycoplasma synoviae) was 6.25 µg/mL (≈ 6.11 µM). It also gave an MIC ([8]; Staphylococcus aureus, X400) of 2 µg/mL (≈ 1.96 µM), an MIC [9, 19] of 0.5 µg/mL (≈ 0.489 µM) and an MIC ([10]; Staphylococcus aureus, X1.1) of 1 µg/mL (≈ 0.978 µM). The MIC [11] was 1 µg/mL (≈ 0.978 µM), the MIC ([12]; Staphylococcus aureus, V41) was 1 µg/mL (≈ 0.978 µM) and the MIC [13, 23] was 1 µg/mL (≈ 0.978 µM). The MIC (Streptococcus bovis 80) was 50 µg/mL (≈ 48.9 µM), the MIC (Mycoplasma hyorhinis; [26]) was > 50 µg/mL and the MIC [14, 24] was > 128 µg/mL.

For `CCC1OC(=O)CC(O)C(C)C(OC2OC(C)C(OC3CC(C)(O)C(O)C(C)O3)C(N(C)C)C2O)C(CCOc2ccc(OC)cc2)CC(C)C(=O)C=CC(C)=CC1COC1OC(C)C(O)C(OC)C1OC` (stereo not drawn) [Compound 14, 20-DH-20-O-(p-Methoxyphenyl)tylosin], the MIC [1, 15] was 1 µg/mL (≈ 0.976 µM), the MIC [2, 21] was 128 µg/mL (≈ 125 µM) and the MIC [3, 22] was 8 µg/mL (≈ 7.81 µM). For the same molecule, the MIC (Mycoplasma hyopneumoniae; [16]) was > 25 µg/mL, the MIC (Streptococcus Group 9960; [25]) was 128 µg/mL (≈ 125 µM) and the MIC (Mycoplasma gallisepticum; [17]) was 0.78 µg/mL (≈ 0.762 µM). The MIC [4] was > 50 µg/mL, the MIC [5] was > 50 µg/mL and the MIC ([6]; Haemophilus influenzae, R252) was > 128 µg/mL. The MIC (Staphylococcus aureus) was 1.56 µg/mL (≈ 1.52 µM), the MIC [7] was > 50 µg/mL and the MIC (Mycoplasma synoviae; Mycoplasma synoviae, broth-dilution microtiter, read-out: MIC) was 6.25 µg/mL (≈ 6.1 µM). The MIC ([8]; Staphylococcus aureus X400, methicillin-resistant strain, agar dilution, read-out: MIC) was 2 µg/mL (≈ 1.95 µM), the MIC [9, 19] was 1 µg/mL (≈ 0.976 µM) and the MIC ([10]; Staphylococcus aureus X1.1, agar dilution, read-out: MIC) was 0.5 µg/mL (≈ 0.488 µM). It also gave an MIC [11] of 1 µg/mL (≈ 0.976 µM), an MIC ([12]; Staphylococcus aureus V41, penicillin-resistant strain, agar dilution, read-out: MIC) of 0.5 µg/mL (≈ 0.488 µM) and an MIC [13, 20] of 2 µg/mL (≈ 1.95 µM). For the same molecule, the MIC (Streptococcus bovis 80) was 25 µg/mL (≈ 24.4 µM), the MIC (Mycoplasma hyorhinis; [26]) was > 50 µg/mL and the MIC ([14]; Haemophilus influenzae) was 128 µg/mL (≈ 125 µM).
